Assay results published in PubChem BioAssay AID652212 (Johns Hopkins Ion Channel Center, 2013).
pIC50: −log10 of the molar value. Active and inactive are the calls of the source.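 The calls were made as follows: active = peak inhibition of the TASK1 potassium channel above a set limit at some dose, plus a fitted dose response; inactive = no inhibition at any dose, or no fitted curve.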

These compounds were tested against Potassium channel subfamily K member 3 (Homo sapiens) (UniProt O14649) (assay: inhibition of human KCNK3 channel flux – CHO cells, FluxOR thallium flux, SAR follow-up (AID 652212)). Details: CHO-TASK1 cells, FluxOR thallium flux fluorescence.
Chain of Potassium channel subfamily K member 3 (Homo sapiens) (O14649 whole entry, looked up): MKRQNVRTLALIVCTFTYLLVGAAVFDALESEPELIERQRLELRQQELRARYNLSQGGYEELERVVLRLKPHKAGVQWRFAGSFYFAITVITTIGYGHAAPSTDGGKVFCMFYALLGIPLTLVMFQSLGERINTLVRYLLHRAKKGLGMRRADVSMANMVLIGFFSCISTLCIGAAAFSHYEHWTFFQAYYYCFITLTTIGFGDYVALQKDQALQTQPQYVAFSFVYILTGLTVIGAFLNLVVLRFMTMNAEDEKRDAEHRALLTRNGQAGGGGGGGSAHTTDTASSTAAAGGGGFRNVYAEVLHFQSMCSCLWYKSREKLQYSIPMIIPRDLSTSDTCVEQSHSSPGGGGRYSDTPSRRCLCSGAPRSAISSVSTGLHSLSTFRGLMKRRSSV

O=C(Nc1cccc(NC(=O)c2ccccc2Cl)c1)c1ccccc1 was tested. Which pIC50 did it give?
Its pIC50 is 6.30.

How did the pIC50 turn out when CC(C)c1ccccc1C(=O)Nc1cccc(NC(=O)c2ccccc2OC(F)(F)F)c1 was run?
Its pIC50 is 7.96.

How did the pIC50 turn out when O=C(Nc1cccc(NC(=O)c2ccoc2)c1)c1ccccc1 was run?
Its pIC50 is 6.10.

How did the pIC50 turn out when O=C(Nc1cccc(NC(=O)C2CCCCC2)c1)c1ccccc1 was run?
Its pIC50 is 7.10.

With Cc1cccc(C(=O)Nc2cccc(NC(=O)c3ccccc3C)c2)c1 as the compound, how does the pIC50 read?
The pIC50 was 7.04.

CN(C)c1ccc(C(=O)Nc2cccc(NC(=O)c3ccccc3)c2)cc1 was tested. Which pIC50 did it give?
Its pIC50 is 6.59.

How did the pIC50 turn out when COc1ccccc1C(=O)Nc1cccc(NC(=O)c2ccccc2OC)c1 was run?
Its pIC50 is 8.00.

O=C(Nc1cccc(NC(=O)c2cccnc2)c1)c1ccccc1 was tested. Which pIC50 did it give?
Its pIC50 is 5.89.

With O=C(Nc1cccc(NC(=O)c2cccs2)c1)c1ccccc1 as the compound, how does the pIC50 read?
Its pIC50 is 7.54.

With Cc1cccc(C(=O)Nc2cccc(NC(=O)c3cccc(Cl)c3)c2)c1 as the compound, how does the pIC50 read?
The pIC50 was 8.52.

With Cc1cccc(C(=O)Nc2cccc(NC(=O)c3ccc(Cl)cc3)c2)c1 as the compound, how does the pIC50 read?
Its pIC50 is 6.83.

With O=C(Nc1cccc(NC(=O)c2cccc(Cl)c2)c1)c1ccccc1 as the compound, how does the pIC50 read?
Its pIC50 is 7.28.

How did the pIC50 turn out when O=C(Nc1cccc(NC(=O)c2ccccn2)c1)c1ccccc1 was run?
The pIC50 was 7.07.

CC(C)Oc1ccccc1C(=O)Nc1cccc(NC(=O)c2ccccc2OC(F)(F)F)c1 was tested. Which pIC50 did it give?
The pIC50 was 9.00.

COc1ccccc1C(=O)Nc1cccc(NC(=O)c2ccccc2C)c1 was tested. Which pIC50 did it give?
Its pIC50 is 7.14.

With O=C(Nc1cccc(NC(=O)c2cccc(C(F)(F)F)c2)c1)c1ccccc1 as the compound, how does the pIC50 read?
Its pIC50 is 6.80.

Cc1cccc(C(=O)Nc2cccc(NC(=O)c3cccc(C)c3)c2)c1 was tested. Which pIC50 did it give?
Its pIC50 is 7.52.

Cc1cccc(C(=O)Nc2cccc(NC(=O)c3ccccc3Cl)c2)c1 was tested. Which pIC50 did it give?
Its pIC50 is 7.64.

How did the pIC50 turn out when COc1cccc(C(=O)Nc2cccc(NC(=O)c3cccc(C)c3)c2)c1 was run?
The pIC50 was 7.51.

COc1ccccc1C(=O)Nc1cccc(NC(=O)c2ccccc2OC(F)(F)F)c1 was tested. Which pIC50 did it give?
Its pIC50 is 8.40.

With Cc1cccc(C(=O)Nc2cccc(NC(=O)c3ccccc3C(C)C)c2)c1 as the compound, how does the pIC50 read?
Its pIC50 is 6.48.

COc1ccccc1C(=O)Nc1cccc(NC(=O)c2ccccc2)c1 was tested. Which pIC50 did it give?
The pIC50 was 6.65.

With Cc1cccc(C(=O)Nc2cccc(NC(=O)c3ccc(N(C)C)cc3)c2)c1 as the compound, how does the pIC50 read?
The pIC50 was 6.84.

With CCOc1ccccc1C(=O)Nc1cccc(NC(=O)c2ccccc2C(F)(F)F)c1 as the compound, how does the pIC50 read?
The pIC50 was 8.70.

O=C(Nc1cccc(NC(=O)c2ccc(F)cc2)c1)c1ccccc1 was tested. Which pIC50 did it give?
Its pIC50 is 6.51.

COc1cccc(C(=O)Nc2cccc(NC(=O)c3ccccc3)c2)c1 was tested. Which pIC50 did it give?
The pIC50 was 6.49.

With O=C(Nc1cccc(NC(=O)c2ccsc2)c1)c1ccccc1 as the compound, how does the pIC50 read?
Its pIC50 is 6.79.

Cc1ccccc1C(=O)Nc1cccc(NC(=O)c2ccccc2)c1 was tested. Which pIC50 did it give?
Its pIC50 is 6.98.

O=C(Nc1cccc(NC(=O)c2ccncc2)c1)c1ccccc1 was tested. Which pIC50 did it give?
Its pIC50 is 6.60.

COc1ccccc1C(=O)Nc1cccc(NC(=O)c2ccccc2C(C)C)c1 was tested. Which pIC50 did it give?
Its pIC50 is 8.15.

With COc1ccc(C(=O)Nc2cccc(NC(=O)c3cccc(C)c3)c2)cc1 as the compound, how does the pIC50 read?
The pIC50 was 5.88.

With O=C(Nc1cccc(NC(=O)c2ccccc2C(F)(F)F)c1)c1ccccc1 as the compound, how does the pIC50 read?
Its pIC50 is 6.89.

With CCOc1ccccc1C(=O)Nc1cccc(NC(=O)c2ccccc2OC)c1 as the compound, how does the pIC50 read?
The pIC50 was 8.70.

How did the pIC50 turn out when COc1ccccc1C(=O)Nc1cccc(NC(=O)c2cccc(C)c2)c1 was run?
Its pIC50 is 8.40.

How did the pIC50 turn out when Cc1cccc(C(=O)Nc2cccc(NC(=O)c3ccco3)c2)c1 was run?
The pIC50 was 6.84.

Cc1cccc(C(=O)Nc2cccc(NC(=O)c3cccc(F)c3)c2)c1 was tested. Which pIC50 did it give?
Its pIC50 is 7.60.

Same assay, conditions: CHO-TASK1 cells, FluxOR thallium flux fluorescence; at 3 µM (top of the series)

Which “normalized flux ratio, lower = inhibition” value does the source give for O=C(Nc1cccc(NC(=O)c2ccc(C(F)(F)F)cc2)c1)c1ccccc1 here?
Its value is “inactive”.

Cc1ccc(C(=O)Nc2cccc(NC(=O)c3ccccc3)c2)cc1 was tested. Which “normalized flux ratio, lower = inhibition” value did it give?
The value was “inactive”.

O=C(Nc1cccc(NC(=O)c2ccc(Cl)cc2)c1)c1ccccc1 was tested. Which “normalized flux ratio, lower = inhibition” value did it give?
The value was “inactive”.

CC(C)(C)c1ccc(C(=O)Nc2cccc(NC(=O)c3ccccc3)c2)cc1 was tested. Which “normalized flux ratio, lower = inhibition” value did it give?
Its value is “inactive”.
